Experimental data from US11059820B2, “Crystalline forms of seletalisib” (UCB BIOPHARMA SPRL, priority 2017, dated 2021).

How the values were obtained:
Format in all cases: physicochemical
[1] = Kinetic stability: solid, powdery samples exposed to air at selected temperature and relative humidity; details: 7 weeks, solid powder exposed to air
From the text: (§1) The thermodynamic stability was checked by suspending crystals of Form B for 30 days in appropriate solvent/water mixtures, thus creating environments with the desired water activity. As water activity is equivalent to relative humidity (e.g. 60% RH=water activity 0.6), and due to the more rapid exchange of molecules between the crystals and the saturated solution in the suspension, this approach gives the possibility to observe the equilibrium condition of the solid form. […] Kinetic stability was checked by exposing solid, powdery samples to air at selected temperature and relative humidity.
(§2) The thermodynamic stability was checked by suspending crystals of Form F for 30 days in appropriate solvent/water mixtures, as explained above for Form B crystals.

[2] = Dynamic Vapor Sorption (DVS); details: 25° C.
Procedure: Two different types of DVS equipment were used, where the sample weight uptake is plotted against the relative humidity over the sample: • SMS DVS controlled by the software DVS Win. The sample temperature is maintained at 25° C. The weight change of the sample as a function of % RH (relative humidity expressed as a percentage) was monitored by the microbalance. The sample was placed on a glass pan attached to the microbalance. A moisture cycle was performed from 30 to 90 to 0 to 30% RH at 25° C. (dm/dt 0.002 with a scanning step 10%). • Projekt Messtechnik Sorptions Prüfsystem SPS 11-100n or Surface Measurement Systems DVS-1; the sample was placed on an aluminium (SPS 11) or platinum (DVS-1) holder on top of the microbalance and conditioned at 25% RH and 25° C. A moisture cycle was performed from 25 to 95 to 0 to 25% RH at 5% RH per hour at 25° C.

[3] = Thermodynamic stability: crystals suspended for 30 days in solvent/water mixtures of desired water activity
From the text: as §1, §2

kinetic stability ([1]; 25° C./60% RH)	kinetic stability ([1]; 40° C./75% RH)	continuous water uptake ([2]; from 25% RH to 95% RH) [% weight]	stepwise mass loss ([2]; second part of the cycle (95% RH to 0% RH), at low RH) [% weight]	stepwise water uptake ([2]; third part of the cycle (0% RH to 25% RH)) [%]	thermodynamic stability under ICH conditions ([3]; 25° C./60% RH, (Hydrate))	thermodynamic stability under ICH conditions ([3]; 40° C./75% RH, (Hydrate))	limited water uptake ([2]; observed from 70% RH onwards) [%]	hygroscopic behaviour (DVS) ([2]; variable relative humidity)	thermodynamic stability under ICH conditions ([3]; 25° C./60% RH)	thermodynamic stability under ICH conditions ([3]; 40° C./75% RH)	SMILES
kinetically stable	kinetically stable	~2.4	3.3	3.6	thermodynamically stable	thermodynamically stable	–	–	–	–	[O-][n+]1cccc(-c2nc3c(Cl)cccc3cc2[C@@H](Nc2ncnc3cccnc23)C(F)(F)F)c1 [Form B, N-{(R)-1-[8-Chloro-2-(1-oxypyridin-3-yl)quinolin-3-yl]-2,2,2-trifluoroethyl}pyrido[3,2-d]pyrimidin-4-ylamine, Crystal Form B (Hydrate)]
–	–	–	–	–	–	–	1	non-hygroscopic	not to be thermodynamically stable	not to be thermodynamically stable	[O-][n+]1cccc(-c2nc3c(Cl)cccc3cc2[C@@H](Nc2ncnc3cccnc23)C(F)(F)F)c1 [Form F, N-{(R)-1-[8-Chloro-2-(1-oxypyridin-3-yl)quinolin-3-yl]-2,2,2-trifluoroethyl}pyrido[3,2-d]pyrimidin-4-ylamine, Crystal Form F]
